What was measured:
[1] = system: human-derived neuroblast (Neuroblastoma) SH-SY5Y strain; assay: fluorescence measurement of intracellular/extracellular ATP concentration in SH-SY5Y cultured cells; assay type: cell-based; details: for intracellular ATP production (fluorescence intensity): in the cells
Description: After the addition of Specimen 1 to cultured cells of a human-derived neuroblast (Neuroblastoma) SH-SY5Y strain, fluorescence measurement of an intracellular/extracellular ATP concentration was performed.

[2] = system: astrocytes, one of glial cells of the central nerve system; assay: fluorescence measurement of ATP amount in cultured astrocytes; assay type: cell-based; details: 1 μM
Description: Specimen 1 was added to astrocytes, one of glial cells of the central nerve system, after culturing and the fluorescence measurement results are shown in FIG. 2A and FIG. 2B.

[3] = system: human glioma U251 cells (Sig1-R transfected cells); assay: intracellular ATP concentration in human glioma U251 cells; assay type: cell-based; details: fluorescence measurement 6 hours after administration
Description: To cultured human glioma US251 cells (Sig1-R transfected cells) were added Specimens 1 and 2, respectively and intercomparison was performed between intracellular ATP concentration after addition and that without addition (Cont.). […] It is to be noted that fluorescence measurement was performed 6 hours after the administration of the specimens.

hippocampal neurons [4] = assay: cultured hippocampal neurons, initial stage of growth: axons, dendrites, excitatory synapses; assay type: cell-based, ICR mouse
Description: Hippocampal neurons were collected from a juvenile (0 day after birth) ICR mouse brain and neurons were cultured on a culture dish.
Specimen 1 was added once to the cells in the initial stage of growth (on culture day 1) and after three days (on culture day 4), the number of neuron axons, dendrites, and growing synapses of the hippocampal neurons (neurons) was quantified. Specimen 1 (0.1 μM, 0.3 μM, 1.0 μM) was added once on culture day 1. Axon and Dendrite were immunostained with a tau antibody and a MAP2 antibody, respectively, three days after the addition (on culture day 4) and morphology thereof was observed.
An experiment was performed by drawing concentric circles (not shown) at an interval of 10 μm with a soma as a center and the number of axons crossing the circles was measured.
The dendrite was immunostained with a MAP2 antibody on culture day 4 and the number of branches of the dendrite was quantified. An experiment was performed by drawing concentric circles (not shown) at an interval of 10 μm with a soma as a center and the number of dendrites crossing the circles was counted.
Then, excitatory synapses on culture 14 day were immunostained with a VGLUT1 antibody and the number of synapses was quantified.

hippocampal neurons [5] = assay: mature cultured hippocampal neurons: dendrite branches; assay type: cell-based, ICR mouse
Description: As in Example 4, hippocampal neurons were collected from a juvenile (0 day after birth) ICR mouse brain and the neurons were cultured on a culture dish.
Specimen 1 was administered once to the mature cultured hippocampal cells (on culture day 11) and three days later (on culture day 14), the neuron axons and dendrites of the hippocampal neurons (neurons) were observed.
Concentric circles were drawn at an interval of 10 μm with a soma as a center and the number of dendrites crossing the circles was measured.

[6] = system: mitochondrial calcium concentration; assay: mitochondrial calcium concentration in brain slice preparations exposed to 80K ACSF, 24 h after subcutaneous administration; assay type: in vivo, mouse (C57B/6NL)
Description: (§1) Formation of brain slice preparation and measurement of calcium concentration: Used was a whole brain half-cut preparation obtained by cutting a whole brain slice (300 μm) of a mouse (C57B/6NL), pretreated with Specimen 1 for 24 hours by subcutaneous administration, at a median line. […] The resulting preparation was placed in a chamber provided on a stage of an inverted fluorescence microscope (Olympus IX71), covered with a piece of black cotton, fixed with a platinum ring, and refluxed (70 ml/hr) in ACSF aerated with 95% O2 and 5% CO2. A fluorescent image of the preparation was acquired using a 4× objective lens and respective images of the hippocampal ventral part and cerebral cortex temporal region were obtained in one screen. For the measurement of a mitochondrial calcium concentration, a change in intensity of red fluorescence (>600 nm) caused by excitation light at 580 nm was determined and for the measurement of a cytoplasmic calcium concentration, a ratio of fluorescence (>500 nm) between excitation at 360 nm and that at 380 nm was determined. A hippocampal CA1 site and a cerebral cortex were used as two regions of interest (ROI).
(§2) In water was dissolved β-NMN to give a 10 mg/kg, 30 mg/kg, or 100 mg/kg solution; Specimen 1 was dissolved in an alcohol to give a solution of 1 mg/ml and then the resulting solution was diluted with water to give a 0.01 mg/kg, 0.1 mg/kg or 1.0 mg/kg solution; and they were subcutaneously administered to mice 24 hours before the formation of the preparation (0.1 ml/10 g).
(§3) In the present test, an operation of exposing the brain preparations formed from mice administered with two drugs having respective concentrations to isotonic 80 mM KCl-ACSF (artificial cerebrospinal fluid) for 5 minutes and then returning them in normal ACSF for 5 minutes was performed three successive times to give a severe calcium load to the preparations. Variations in cytoplasmic and mitochondrial calcium concentrations at that time were measured.
FIG. 31A to FIG. 32C show the quantification results of the effects of β-NMN and Specimen 1 (TND1128) at each concentration. In FIG. 31A to FIG. 32C, FIG. 31A and FIG. 32A show the results of calculating a mitochondrial calcium concentration, as AUC (Area under the curve), for 35 minutes from 5 minutes after starting of the experiment by administration to three times exposure to 80K-ACSF and 5-minute washing (refer to FIG. 37). FIG. 31B. FIG. 31C, FIG. 32B and FIG. 32C show the drug effects on 5-minute 80K administration and 5-minute subsequent washing (1st: from 5 minutes to 15 minutes, 2nd: from 15 minutes to 25 minutes, and 3rd: from 25 minutes to 35 minutes) in the cerebral cortex (CTX) and the hippocampus (CA1), respectively (refer to FIG. 37). A significant difference test was performed using Tukey's method.

[7] = system: cytoplasmic calcium concentration; assay: cytoplasmic calcium concentration in brain slice preparations exposed to 80K ACSF, 24 h after subcutaneous administration; assay type: in vivo, mouse (C57B/6NL)
Description: as §1, §2, §3

SIRT1 = SIRT1 in treated nematode (preliminary experiment); assay type: in vivo; details: nematode treated for 24 hours
[8] = lipophilicity, hydrophobicity and stability; assay type: physicochemical
[9] = system: intracerebral hemorrhage model rats; assay: intracerebral hemorrhage model rats, amount of exercise; assay type: in vivo, Wistar rats; details: 100 μg/kg injected into the brain spot one hour after collagenase; hemorrhage day 1 and one week after
Description: Intracerebral hemorrhage model rats were prepared by making a small hole into the skull of adult Wistar rats (weight: from 200 to 230 g) under inhalation anesthesia, administering 1.2 μl of a physiological saline to the right brain striatum in Control group and a physiological saline comprising 0.24 U collagenase (type IV) to that of a hemorrhage group.
In order to confirm the brain cell protective action of Specimen 4 for the intracerebral hemorrhage model rats, 100 μg/kg of Specimen 4 was injected into a spot (white lozenge in the drawing) one hour after administration of collagenase, and exercise footprints of the rat were quantitatively measured. (A: Control, B: Hemorrhage group. Pay attention to color change (to black) after hemorrhage).
For the measurement of the amount of exercise, the moving image of the rats was photographed for 5 minutes. The free movement (exercise distance and exercise speed) during the latter 3 minutes of the photographing time was analyzed.

[10] = 0.3 μM and 1.0 μM, culture day 4

## CCn1c2nc(=O)n(C)c(=O)c-2cc2ccccc21 [Specimen 1]
[1]; 1 μM, after 12 hours
  intracellular ATP production (fluorescence intensity): the effect disappears after 12 hours
[1]; 1 μM, immediately after addition
  intracellular ATP production (fluorescence intensity): an increase in ATP production (increase in fluorescence intensity) is observed for 5 hours
[1]; 1 μM, outside the cells
  extracellular ATP production / ATP concentration: an increase in ATP production is observed for 5 hours
[1]; treatment with the specimen
  morphological change of the cultured cells: no morphological change of the cultured cells
[2]; 12 hours and 24 hours after administration
  ATP amount in the glial cells: significantly increased
[2]; astrocytes
  extracellular ATP amount: shows a similar tendency
[3]
  ATP production amount (intracellular ATP concentration vs without addition): significantly increased the ATP production amount
Hippocampal neurons [4]; [10]
  drug efficacy on axons at 0.3 μM and 1.0 μM: almost similar maximum drug efficacy
  drug efficacy on dendrites at 0.3 μM and 1.0 μM: almost similar maximum drug efficacy
Hippocampal neurons [4]; 0.3 μM, VGLUT1 antibody, culture day 14
  number of excitatory synapses: significantly increased the number of excitatory synapses to the maximum
Hippocampal neurons [4]; 0.1, 0.3, 1.0 μM added once on culture day 1, MAP2 antibody, culture day 4
  dendrite extension and number of branches: concentration-dependently extended the dendrite and increased the number of branches thereof
Hippocampal neurons [4]; 0.1, 0.3, 1.0 μM added once on culture day 1, tau antibody, culture day 4
  elongation/growth of neuron axons and number of branches: concentration-dependently increases the elongation/growth of neuron axons and the number of branches
Hippocampal neurons [5]; 0.3 μM and 1 μM, administered culture day 11, MAP2 antibody culture day 14
  number of dendrites in mature cultured cell: the number of dendrites tends to increase
Hippocampal neurons [5]; administered culture day 11, observed culture day 14
  increase in the number of dendrite branches, mature cells compared with culture day 4: an increase in the number of branches was not so more marked than that caused by the drug efficacy observed in the cells on culture day 4
[6]; 100 mg/kg β-NMN, 1 mg/kg Specimen 1
  physiological response of the preparations under 80K-ACSF stimulation (mitochondrial and cytoplasmic Ca2+ variations): the preparations can maintain a markedly stable physiological response
[6]; 24 hours after administration
  mitochondrial protective function / function stabilizing effect: significant mitochondrial function stabilizing effect
[6]; s.c. 24 h pretreatment
  effective amount: ≤ 1.0 mg/kg
  strength of mitochondrial Ca2+ concentration suppressing effect relative to β-NMN, judged from the effective concentration: 100 times
[6]; s.c. 24 h pretreatment, within the dose range studied, Tukey's method
  mitochondrial calcium concentration as AUC, cerebral cortex (CTX) and hippocampus (CA1): a dose response relationship
[6]; s.c. 24 h pretreatment, β-NMN 10, 30, 100 mg/kg, Specimen 1 0.01, 0.1, 1.0 mg/kg
  mitochondrial Ca2+ increase on three times 80K ACSF exposure (time course): dose-dependently suppress a mitochondrial Ca^2+ increase
[7]; s.c. 24 h pretreatment
  effect on drastic increase in cytoplasmic Ca2+ concentration caused by 80K-ACSF: no significant effect
[7]; s.c. 24 h pretreatment, all doses
  quantified cytoplasmic Ca2+ (AUC), significant difference: a significant difference was not observed
[7]; β-NMN 30 or 100 mg/kg, Specimen 1 0.01 to 1.0 mg/kg, s.c. 24 h
  recovery of cytoplasmic calcium concentration variations at each 80K-ACSF administration: show similar recovery
SIRT1
  SIRT1: significant increase
[8]
  hydrophobicity: highly hydrophobic
[8]; chemical stability
  stability: stable

## Cn1c(=O)nc2n(-c3ccccc3)c3cc(Cl)ccc3cc-2c1=O [Specimen 4]
[9]
  exercise distance: ameliorates an ischemic decrease
  exercise speed: ameliorates an ischemic decrease
